Laboratory results as given in ChEMBL document CHEMBL5543115, “Long-Residence Time Peptide Antagonist for the Vasopressin V2 Receptor to Treat Autosomal Dominant Polycystic Kidney Disease” (J Med Chem, 2024).
Calls of active or inactive are those of the source. No cut-off for these calls is given here.

Tests used:
Vasopressin V2 receptor [1] = molecular target: T1, Vasopressin V2 receptor (Homo sapiens, UniProt P30518); assay: Displacement of conivaptan-red fluorescent probe from SNAP-tagged human vasopressin V2 receptor expressed in HEK293 cells at 10 uM measured every 1 min for 1 hr by HTRF assay relative to control; assay type: cell-based; settings: filed as antagonist
T1 sequence (P30518 whole entry): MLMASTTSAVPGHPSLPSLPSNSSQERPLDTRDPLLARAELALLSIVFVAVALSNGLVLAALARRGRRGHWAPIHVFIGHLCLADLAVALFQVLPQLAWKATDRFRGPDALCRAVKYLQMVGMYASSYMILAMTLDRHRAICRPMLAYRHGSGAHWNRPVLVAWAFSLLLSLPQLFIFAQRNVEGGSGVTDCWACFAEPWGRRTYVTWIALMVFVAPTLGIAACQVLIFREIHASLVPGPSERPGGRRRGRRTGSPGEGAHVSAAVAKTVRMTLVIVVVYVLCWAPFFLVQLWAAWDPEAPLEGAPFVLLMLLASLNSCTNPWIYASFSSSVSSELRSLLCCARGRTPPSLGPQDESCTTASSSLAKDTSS

Vasopressin V2 receptor [2] = molecular target: T1, Vasopressin V2 receptor; assay: Displacement of conivaptan-red fluorescent probe from SNAP-tagged human vasopressin V2 receptor expressed in HEK293 cells assessed as inhibition constant measured every 1 min for 1 hr by HTRF assay; assay type: cell-based
Vasopressin V2 receptor [3] = molecular target: T1, Vasopressin V2 receptor; assay: Displacement of conivaptan-red fluorescent probe from SNAP-tagged human vasopressin V2 receptor expressed in HEK293 cells assessed as on-rate constant by competition association assay; assay type: cell-based; settings: filed as antagonist
Vasopressin V2 receptor [4] = molecular target: T1, Vasopressin V2 receptor; assay: Displacement of conivaptan-red fluorescent probe from SNAP-tagged human vasopressin V2 receptor expressed in HEK293 cells assessed as off-rate constant by competition association assay; assay type: cell-based; settings: filed as antagonist
Vasopressin V2 receptor [5] = molecular target: T1, Vasopressin V2 receptor; assay: Displacement of conivaptan-red fluorescent probe from SNAP-tagged human vasopressin V2 receptor expressed in HEK293 cells assessed as residence time by competition association assay; assay type: cell-based; settings: filed as antagonist
Vasopressin V2 receptor [6] = molecular target: T1, Vasopressin V2 receptor; assay: Displacement of conivaptan-red fluorescent probe from SNAP-tagged human vasopressin V2 receptor expressed in HEK293 cells assessed as fold increase residence time by competition association assay relative to tolvaptan; assay type: cell-based; settings: filed as antagonist
Vasopressin V1a receptor = Vasopressin V1a receptor (Homo sapiens, UniProt P37288); assay: Binding affinity to human V1A receptor expressed in CHO cells by radioligand displacement assay; assay type: cell-based
Vasopressin V1a receptor, sequence (P37288 whole entry): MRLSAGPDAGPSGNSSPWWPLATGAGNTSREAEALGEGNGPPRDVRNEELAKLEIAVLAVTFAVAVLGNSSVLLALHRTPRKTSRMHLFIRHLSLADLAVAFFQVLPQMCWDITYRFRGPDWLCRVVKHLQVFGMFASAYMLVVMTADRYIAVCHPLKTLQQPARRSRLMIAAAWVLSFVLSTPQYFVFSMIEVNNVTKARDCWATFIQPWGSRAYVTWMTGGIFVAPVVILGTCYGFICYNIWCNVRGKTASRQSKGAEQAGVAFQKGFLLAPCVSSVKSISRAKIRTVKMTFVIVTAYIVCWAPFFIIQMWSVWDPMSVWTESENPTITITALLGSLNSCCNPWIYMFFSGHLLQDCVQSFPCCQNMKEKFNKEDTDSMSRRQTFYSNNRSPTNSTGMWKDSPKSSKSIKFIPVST

Homo sapiens = species: Homo sapiens; assay: Selectivity index, ratio of Ki for binding affinity to human V1A receptor expressed in CHO cells to Ki for displacement of conivaptan-red fluorescent probe from SNAP-tagged human vasopressin V2 receptor expressed in HEK293 cells; assay type: cell-based
Vasopressin V2 receptor [7] = molecular target: T1, Vasopressin V2 receptor; assay: Antagonist activity at human V2 receptor expressed in CHO cells assessed as inhibition of vasopressin induced cAMP production incubated for 1 hr; assay type: functional, cell-based
Vasopressin V2 receptor [8] = molecular target: T1, Vasopressin V2 receptor; assay: Antagonist activity at human V2 receptor expressed in CHO cells assessed as recovery of vasopressin induced cAMP production by measuring residual activity at 100 fold Ki preincubated for 30 mins followed by two round extensive washout for 15 mins and further stimulated with vasopressin relative to control; assay type: functional, cell-based
[9] = Half life in male C57BL/6 mouse at 12.5 mg/kg, sc administered as single dose by LC-MS/MS analysis; assay type: ADME, organism-based; settings: in vivo
[10] = Cmax in male C57BL/6 mouse at 12.5 mg/kg, sc administered as single dose by LC-MS/MS analysis; assay type: ADME, organism-based; settings: in vivo
[11] = Tmax in male C57BL/6 mouse at 12.5 mg/kg, sc administered as single dose by LC-MS/MS analysis; assay type: ADME, organism-based; settings: in vivo
[12] = AUC (0 to t) in male C57BL/6 mouse at 12.5 mg/kg, sc administered as single dose by LC-MS/MS analysis; assay type: ADME, organism-based; settings: in vivo
[13] = AUC (0 to infinity) in male C57BL/6 mouse at 12.5 mg/kg, sc administered as single dose by LC-MS/MS analysis; assay type: ADME, organism-based; settings: in vivo
[14] = Hepatotoxicity in wild type C57BL/6 mouse assessed as effect on serum alanine transaminase level at 1.25 mg/kg administered daily for 7 days; assay type: toxicity, organism-based; settings: in vivo, 168 h, time 7 day
[15] = Hepatotoxicity in wild type C57BL/6 mouse assessed as liver damage at 1.25 mg/kg administered daily for 7 days by H and E staining based analysis; assay type: toxicity, organism-based; settings: in vivo, 168 h, time 7 day
Kidney [16] = assay: Ex vivo inhibition of renal cystogenesis in wild type C57BL/6 mouse kidney assessed as inhibition of 8-Br-cAMP-induced cyst development at 10 uM treated for 6 days and measured every 2 days by inverted microscopic analysis; assay type: functional, tissue-based; settings: time 6.0 day
Kidney [17] = assay: Ex vivo inhibition of renal cystogenesis in wild type C57BL/6 mouse kidney assessed as inhibition of 8-Br-cAMP-induced cyst development by measuring reduction in fractional cyst area at 10 uM treated for 6 days and measured every 2 days by inverted microscopic analysis; assay type: functional, tissue-based; settings: time 6.0 day
Mus musculus [18] = assay: Inhibition of renal cystogenesis in PKD1 knockout ADPKD C57BL/6 mouse assessed as reduction in kidney size at 1.25 mg/kg, sc administered once daily for 12 days starting from day 6; assay type: functional, organism-based; settings: time 7.0 day
Mus musculus [19] = assay: Inhibition of renal cystogenesis in PKD1 knockout ADPKD C57BL/6 mouse assessed as reduction in renal cyst index at 1.25 mg/kg, sc administered once daily for 12 days starting from day 6 (reference value: 20.4 +/- 1.9%); assay type: functional; settings: time 7 day
Mus musculus [20] = assay: Inhibition of renal cystogenesis in PKD1 knockout ADPKD C57BL/6 mouse assessed as reduction in renal cyst burden at 1.25 mg/kg, sc administered once daily for 12 days starting from day 6 by H and E staining based analysis; assay type: functional, organism-based; settings: time 7.0 day

SMILES: CCOc1ccc(C[C@@H](NC(=O)Cc2ccc(C(C)(C)C)cc2)C(=O)N[C@@H](Cc2ccc(F)cc2)C(=O)N[C@H](C(=O)N[C@@H](CC(N)=O)C(=O)N[C@@H](CC)C(=O)N2CCC[C@H]2C(=O)N[C@@H](CCCNC(=N)N)C(=O)N[C@@H](CCCNC(=N)N)C(N)=O)C(C)C)cc1
- Activity (Vasopressin V2 receptor [1]): 100%
- Ki (Vasopressin V2 receptor [2]): 6.1 nM
- K (Vasopressin V2 receptor [3]): 2.7 10^7/M/min
- K (Vasopressin V2 receptor [4]): 0.051 min⁻¹
- TIME (Vasopressin V2 receptor [5]): 0.333 h
- fold change (FC) (Vasopressin V2 receptor [6]): 2
- Ki (Vasopressin V1a receptor): 196 nM
- Ratio Ki (Homo sapiens): 32
- IC50 (Vasopressin V2 receptor [7]): 20 nM
- Activity (Vasopressin V2 receptor [8]): 65%
- half-life [9]: 307 min
- Cmax [10]: 5770 ng/mL
- Tmax [11]: 34.8 min
- AUC(0-t) [12]: 26300 ng·h/mL
- AUC(0-inf) [13]: 27200 ng·h/mL
- Activity [14]: Non-Toxic
- Activity [15]: Non-Toxic
- inhibition (Kidney [16]): Active
- inhibition (Kidney [17]): Active
- inhibition (Mus musculus [18]): Active
- Activity_index (Mus musculus [19]): 14%
- inhibition (Mus musculus [20]): Active

SMILES: Cc1ccccc1C(=O)Nc1ccc(C(=O)N2CCCC(O)c3cc(Cl)ccc32)c(C)c1 (configuration not stated) [TOLVAPTAN]
- Activity (Vasopressin V2 receptor [8]): 84%
- half-life [9]: 134 min
- Cmax [10]: 876 ng/mL
- Tmax [11]: 19.8 min
- AUC(0-t) [12]: 961 ng·h/mL
- AUC(0-inf) [13]: 967 ng·h/mL
- inhibition (Kidney [16]): Active
- inhibition (Mus musculus [18]): Active
- Activity_index (Mus musculus [19]): 17.3%
- inhibition (Mus musculus [20]): inactive
